Data on ten compounds can be found in patent US9403822B2, “Apoptosis-inducing agents for the treatment of cancer and immune and autoimmune diseases” (AbbVie Inc., priority 2010, dated 2016).

Where two headings read alike, the source gives them in different places. Where only a bound is given, the exact number is not on record here.

In one data set the target is GST-Bcl-2 (Homo sapiens (Human), UniProt P10415). Kind of data set: Time Resolved-Fluorescence Resonance Energy Transfer (TR-FRET) Bcl-2 binding assay. Particulars: F-Bak peptide probe 100 nM, GST-Bcl-2 1 nM, Tb-anti-GST 1 nM; Wang's equation. The procedure:
Determination of the utility of compounds having Formula (I) as binders to and inhibitors of anti-apoptotic Bcl-2 proteins was performed using the Time Resolved-Fluorescence Resonance Energy Transfer (TR-FRET) Assay. Tb-anti-GST antibody was purchased from Invitrogen (Catalog No. PV4216). Representative compounds were serially diluted in dimethyl sulfoxide (DMSO) starting at 50 μM (2× starting concentration; 10% DMSO) and 10 μL were transferred into a 384-well plate. […] For each assay, the probe/antibody and protein/probe/antibody were included on each assay plate as negative and positive controls, respectively. Fluorescence was measured on the ENVISION plate reader (Perkin Elmer) using a 340/35 nm excitation filter and 520/525 (F-Bak peptide) and 495/510 nm (Tb-labeled anti-Histidine antibody) emission filters. Inhibition constants (Ki) are shown in TABLE 2 below and were determined using Wang's equation (Wang Z.-X. An Exact Mathematical Expression For Describing Competitive Binding Of Two Different Ligands To A Protein Molecule. FEBS Lett. 1995, 360:111-4).
In general terms: In TR-FRET formats the signal depends on donor and acceptor labels being close together.

The next data set relates to RS4;11 cells. The experiment in a line: RS4;11 cell viability assay (CellTiter Glo). It counts as cell-based. Particulars: acute lymphoblastic leukemia cell line RS4;11, 10% human serum, 48 hours. From the text: The acute lymphoblastic leukemia (ALL) cell line RS4;11 was used as the primary human cell line to assess the cellular activity of Bcl-2 selective agents in vitro and their efficacy in vivo. Previous studies have shown by BH3 profiling, a mitochondrial assay that classifies blocks in the intrinsic apoptotic pathway, that RS4;11 cells were highly dependant on BCL-2 for survival and sensitive to the Bcl-2 family member inhibitor ABT-737 (Blood, 2008, Vol. III, 2300-2309).
RS4;11 cells were cultured in RPMI-1640 supplemented with 2 mM L-glutamine, 10% FBS, 1 mM sodium pyruvate, 2 mM HEPES, 1% penicillin/streptomycin (Invitrogen), 4.5 g/L glucose and maintained at 37 C containing 5% CO2. To test for the cellular activity of compounds in vitro, cells were treated at 50,000 cells per well in 96-well microliter plates in the presence of 10% human serum for 48 hours in a humidified chamber with 5% CO2. Cell cytotoxicity EC50 values were assessed using CellTiter Glo (Promega) according to the manufacturers recommendations. The EC50 values were determined as a percentage of viable cells following treatment compared to the untreated control cells.
Background: ATP-based viability assays read luminescence as a measure of living cells.

Data set [1] in a line: Solubility determination in aqueous media. To be noted: for solubility: phosphate buffer, pH 7.4, aqueous buffer, thermodynamic from solid.
Method: Reagents used included 0.1 N HCl, J T Baker Lot G08515; and 50 mM Phosphate pH 7.4, μ=0.155 w/NaCl, NB93214-089, Equipment/Instruments used included balance: Mettler Toledo, UMX2, LC805269; Rainin Pipette; 1000 μL RF09683 μL, 200 μL, RF20783; water bath: Vankel, LC 954896, set at 25° C. and 25 RPM, Thermometer: TB085699); and water bath: Vankel, LC 127535, set at 37° C. and 25 RPM, Thermometer: TB096544).
Examples were tested in aqueous media at 25° C. or 37° C. Excess amount of the bulk drug was weighed out and mixed with an aliquot of target media in a clear glass vial. The vial was sealed with cap and wrapped with aluminum foil, then tumbled in a 25° C. or 37° C. water bath as appropriate. When equilibration was completed, she samples were removed from the water bath and the final pH's were measured. The suspensions were filtered through 4 mm, 0.2 μm Millex-LG syringe filters (hydrophilic PTFE membrane, Millipore, Lot N9JN70696). Each filter was used only for one sample and the first three droplets were discarded. The filtrate was assayed after appropriate dilution with the same solvent as used for stock solution. Three replicates were prepared. The concentration of the sample was calculated against the calibration curve for the compound.

Chain of GST-Bcl-2 (P10415 whole entry): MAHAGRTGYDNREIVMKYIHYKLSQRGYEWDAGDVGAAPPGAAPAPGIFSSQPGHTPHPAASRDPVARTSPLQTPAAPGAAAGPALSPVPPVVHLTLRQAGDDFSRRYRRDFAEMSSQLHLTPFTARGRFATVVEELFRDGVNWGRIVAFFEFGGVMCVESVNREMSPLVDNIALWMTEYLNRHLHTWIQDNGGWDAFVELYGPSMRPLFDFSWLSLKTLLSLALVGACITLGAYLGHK

“3-[(4-{[4-(4-{[2-(4-chlorophenyl)-4,4-dimethylcyclohex-1-en-1-yl]methyl}piperazin-1-yl)-2-(1H-pyrrolo[2,3-b]pyridin-5-yloxy)benzoyl]sulfamoyl}-2-nitrophenyl)amino]-2,2-dimethylpropyl dihydrogen phosphate [Example 4]”: the “Aqueous Solubility (pH 7.4)” value turned out to be 169 ug/mL. In addition, the inhibitory constant (Ki) on GST-Bcl-2 is less than 0.01 nM. This compound also registered an EC50 with RS4;11 cells of more than 1000 nM.

`CO[C@H]1CC[C@H](CNc2ccc(S(=O)(=O)NC(=O)c3ccc(N4CCN(CC5=C(c6ccc(Cl)cc6)CC(C)(C)CC5)CC4)cc3Oc3cc4ccnc-4n(COP(=O)(O)O)c3)cc2[N+](=O)[O-])CC1` [Example 1, {5-[5-(4-{[2-(4-chlorophenyl)-4,4-dimethylcyclohex-1-en-1-yl]methyl}piperazin-1-yl)-2-{[(4-{[(trans-4-methoxycyclohexyl)methyl]amino}-3-nitrophenyl)sulfonyl]carbamoyl}phenoxy]-7H-pyrrolo[2,3-b]pyridin-7-yl}methyl dihydrogen phosphate] came in with a Ki on GST-Bcl-2 of less than 0.01 nM. Further, the “Aqueous Solubility (pH 7.4)” value in data set [1] (50 mM phosphate pH 7.4, 25° C. or 37° C.) was more than 1159 ug/mL. The response in the data set with RS4;11 cells was half-maximal at 310 nM (EC50).

As for `CO[C@H]1CC[C@H](CNc2ccc(S(=O)(=O)NC(=O)c3ccc(N4CCN(CC5=C(c6ccc(Cl)cc6)CC(C)(C)CC5)CC4)cc3Oc3cnc4[nH]ccc4c3)cc2[N+](=O)[O-])CC1` [Example 1M, Trans-4-(4-{[2-(4-chlorophenyl)-4,4-dimethylcyclohex-1-en-1-yl]methyl}piperazin-1-yl)-N-[(4-{[(4-methoxycyclohexyl)methyl]amino}-3-nitrophenyl)sulfonyl]-2-(1H-pyrrolo[2,3-b]pyridin-5-yloxy)benzamide], the solubility in data set [1] was less than 1 µg/mL.

Regarding `CC1(C)CCC(CN2CCN(c3ccc(C(=O)NS(=O)(=O)c4ccc(NCC5CCOCC5)c([N+](=O)[O-])c4)c(Oc4cnc5[nH]ccc5c4)c3)CC2)=C(c2ccc(Cl)cc2)C1` [Example 2B, 4-(4-{[2-(4-chlorophenyl)-4,4-dimethylcyclohex-1-en-1-yl]methyl}piperazin-1-yl)-N-({3-nitro-4-[(tetrahydro-2H-pyran-4-ylmethyl)amino]phenyl}sulfonyl)-2-(1H-pyrrolo[2,3-b]pyridin-5-yloxy)benzamide], the solubility in data set [1] was less than 4 µg/mL.

For `CC1(C)CCC(CN2CCN(c3ccc(C(=O)NS(=O)(=O)c4ccc(OCC5(F)CCOCC5)c([N+](=O)[O-])c4)c(Oc4cnc5[nH]ccc5c4)c3)CC2)=C(c2ccc(Cl)cc2)C1` [Example 3E, 4-(4-{[2-(4-chlorophenyl)-4,4-dimethylcyclohex-1-en-1-yl]methyl}piperazin-1-yl)-N-({4-[(4-fluorotetrahydro-2H-pyran-4-yl)methoxy]-3-nitrophenyl}sulfonyl)-2-(1H-pyrrolo[2,3-b]pyridin-5-yloxy)benzamide], in data set [1], the solubility was less than 1 µg/mL.

The compound `CC(C)(CO)CNc1ccc(S(=O)(=O)NC(=O)c2ccc(N3CCN(CC4=C(c5ccc(Cl)cc5)CC(C)(C)CC4)CC3)cc2Oc2cnc3[nH]ccc3c2)cc1[N+](=O)[O-]` [Example 6, 4-(4-{[2-(4-chlorophenyl)-4,4-dimethylcyclohex-1-en-1-yl]methyl}piperazin-1-yl)-N-({4-[(3-hydroxy-2,2-dimethylpropyl)amino]-3-nitrophenyl}sulfonyl)-2-(1H-pyrrolo[2,3-b]pyridin-5-yloxy)benzamide] had a solubility in data set [1] of less than 1 µg/mL.

With `CC1(C)CCC(CN2CCN(c3ccc(C(=O)NS(=O)(=O)c4ccc(OC[C@H]5CC[C@H](O)CC5)c([N+](=O)[O-])c4)c(Oc4cnc5[nH]ccc5c4)c3)CC2)=C(c2ccc(Cl)cc2)C1` [Example 7, Trans-4-(4-{[2-(4-chlorophenyl)-4,4-dimethylcyclohex-1-en-1-yl]methyl}piperazin-1-yl)-N-({4-[(4 hydroxycyclohexyl)methoxy]-3-nitrophenyl}sulfonyl)-2-(1H-pyrrolo[2,3-b]pyridin-5-yloxy)benzamide], the solubility in data set [1] was less than 1 µg/mL.

In the case of “(5-{5-(4-{[2-(4-chlorophenyl)-4,4-dimethylcyclohex-1-en-1-yl]methyl}piperazin-1-yl)-2-[({3-nitro-4-[(tetrahydro-2H-pyran-4-ylmethyl)amino]phenyl}sulfonyl)carbamoyl]phenoxy}-7H-pyrrolo[2,3-b]pyridin-7-yl)methyl dihydrogen phosphate [Example 2]”, the “Aqueous Solubility (pH 7.4)” value is more than 4820 ug/mL. At GST-Bcl-2, this compound showed an inhibition constant (Ki) of less than 0.01 nM. In the data set with RS4;11 cells, this compound registered an EC50 of 180 nM.

On to “(5-{5-(4-{[2-(4-chlorophenyl)-4,4-dimethylcyclohex-1-en-1-yl]methyl}piperazin-1-yl)-2-[({4-[(4-fluorotetrahydro-2H-pyran-4-yl)methoxy]-3-nitrophenyl}sulfonyl)carbamoyl]phenoxy}-7H-pyrrolo[2,3-b]pyridin-7-yl)methyl dihydrogen phosphate [Example 3]”, for which the “Aqueous Solubility (pH 7.4)” value was more than 10850 ug/mL. The concentration giving a half-maximal response (EC50) in the data set with RS4;11 cells was 41 nM.

As for “trans-4-[(4-{[4-(4-{[2-(4-chlorophenyl)-4,4-dimethylcyclohex-1-en-1-yl]methyl}piperazin-1-yl)-2-(1H-pyrrolo[2,3-b]pyridin-5-yloxy)benzoyl]sulfamoyl}-2-nitrophenoxy)methyl]cyclohexyl dihydrogen phosphate [Example 5]”, the “Aqueous Solubility (pH 7.4)” value is given as more than 6580 ug/mL. Also, a half-maximal response in the data set on RS4;11 cells (EC50) required 42 nM.

As usually defined, the Ki is a measure of affinity in units of concentration, obtained from inhibition or displacement. The low end stands for higher affinity, the high end for lower affinity. As usually defined, the EC50 is the midpoint of the concentration-response curve. One may read the solubility as how much of the substance goes into solution per volume. A high value points to much dissolved substance.
